# Structures can show the parent of a compound that is named as a salt. Marks after values point to notes of the source that are not given here.
# What was measured:
# [1] = Evaluation of CI-1027 in female obese Zucker rats (body weight and liver weight); format: in vivo; details: for Body Weight Day 0: Day 0 (baseline), mean ± SEM; for Body Weight Day 0 / Body Weight Day 7 / Body Weight Day 14 / Body Weight Day 21 / Body Weight Day 28 / Body Weight Day 32 / Liver Weight Day 32 / Percent Liver/Body Weight: n = 6; for Body Weight Day 7: Day 7, mean ± SEM; for Body Weight Day 14: Day 14, mean ± SEM; for Body Weight Day 21: Day 21, mean ± SEM; for Body Weight Day 28: Day 28, mean ± SEM; for Body Weight Day 32 / Liver Weight Day 32 / Percent Liver/Body Weight: Day 32, mean ± SEM
# Method: Adult female obese Zucker rats weighing 265 to 268 g were obtained from Genetic Models, Inc. The animals were maintained on a diet of pelleted rodent chow (Ralston Purina) and were given water ad libitum. The animals were housed in cages in a temperature controlled room, with a 12-hour light/12-hour dark cycle (lights were turned on at 6 AM each day). CI-1027 was suspended in a vehicle of 1.5% carboxymethylcellulose containing 0.2% Tween-20. A control group of six rats were dosed daily with vehicle alone. One group of six test animals received daily oral dosing (by gavage) of 2.5 mL/kg suspensions of CI-1027 at 30 mg/kg active drug, while another group of six animals received daily oral dosing of 2.5 mL/kg of suspension at 100 mg/kg of CI-1027. The pelleted rodent chow was available ad libitun, except on Days 0, 7, 14, 21, 28, and 32, when food was removed from the cages at 7:30 AM, and the animals were weighed within 2 hours following removal of the food. The food trays were replaced in the cages after the weights of all animals were measured.
# [2] = Evaluation of CI-1027 in leptin receptor deficient mice (body weight, food consumption); format: in vivo
smiles,measurement,setting,value
"CC(C)(CCCCOCCCCC(C)(C)C(=O)O)C(=O)O [CI-1027, 6-(5-carboxy-5-methyl-hexyloxy)-2,2-diiethyl-hexanoic acid, calcium salt]",Body Weight Day 0,[1]; 30 mg/kg daily oral gavage,265 ± 4 g
same,Body Weight Day 7,[1]; 30 mg/kg daily oral gavage,283 ± 4^a g
same,Body Weight Day 14,[1]; 30 mg/kg daily oral gavage,299 ± 4^c g
same,Body Weight Day 21,[1]; 30 mg/kg daily oral gavage,311 ± 3^c g
same,Body Weight Day 28,[1]; 30 mg/kg daily oral gavage,317 ± 4^c g
same,Body Weight Day 32,[1]; 30 mg/kg daily oral gavage,321 ± 4^c g
same,Liver Weight Day 32,[1]; 30 mg/kg daily oral gavage,22.8 ± 1.0^c g
same,Percent Liver/Body Weight,[1]; 30 mg/kg daily oral gavage,7.09 ± 0.3^c Percent
same,Body Weight Day 0,[1]; 100 mg/kg daily oral gavage,265 ± 4 g
same,Body Weight Day 7,[1]; 100 mg/kg daily oral gavage,286 ± 3^a g
same,Body Weight Day 14,[1]; 100 mg/kg daily oral gavage,302 ± 4^b g
same,Body Weight Day 21,[1]; 100 mg/kg daily oral gavage,314 ± 4^c g
same,Body Weight Day 28,[1]; 100 mg/kg daily oral gavage,326 ± 5^c g
same,Body Weight Day 32,[1]; 100 mg/kg daily oral gavage,326 ± 5^c g
same,Liver Weight Day 32,[1]; 100 mg/kg daily oral gavage,24.8 ± 1.3^c g
same,Percent Liver/Body Weight,[1]; 100 mg/kg daily oral gavage,7.53 ± 0.3^c Percent
same,reduction in weight,"[1]; all treatment groups (30 and 100 mg/kg), over 32 days",significant reduction in weight
same,effect on body weight,[2],no significant effect
same,effect on food consumption,[2],no significant effect

# Reference: patent US20030212118A1, “Treatment of eating disorders using carboxyalkylethers” (priority 2000, published 2003)
